Reference: patent US9539309B2, “Controlled release of growth factors and signaling molecules for promoting angiogenesis” (President and Fellows of Harvard College, priority 2008, dated 2017)

Legend:
[1] = tested on: cells in small intestines; assay: in vivo effect of DAPT on the cells in small intestines (H&E, alcian blue, Ki67, HES-1 staining); set-up: species or system mice
Excerpt: FIG. 6 is a series of photomicrographs showing the effect of DAPT on gastrointestinal tissue. In vivo model was used to test the effect of DAPT delivered from alginate gel system and from intraperitoneal injection on the cells in small intestines. gel: alginate gel. ip: intraperitoneal injection. H&E, alcian blue, Ki67 and HES-1 are the four different staining methods to characterize the crypt cells in small intestines. Ki-67 was used to stain the proliferative cells. Loss of Notch signaling can alter the proliferation rate of crypt cells. HES-1 staining was to examine the expression of a known Notch target gene in crypts. Alcian blue staining was to examine the deposition of glycosaminoglycan molecules. Loss of Notch signaling can result in more deposition of glycosaminoglycan molecules. Expression of HES-1 (hairy and enhancer of split 1), a member of basic helix-loop-helix family of transcription factors and a known Notch target gene in crypts was examined. Loss of Notch signaling can alter the proliferation rate of crypt cells, as shown by Ki-67 staining the proliferative cells. In addition, Notch inhibition has been reported to alter the balance between proliferative crypt cells and goblet cells, resulting in more deposition of glycosaminoglycan molecules, as characterized by alcian blue staining.

[2] = tested on: Endothelial cells isolated from diabetics; assay: in vitro sprouting model with endothelial cells isolated from diabetics; format: cell-based
Excerpt: In addition, there is an optimal VEGF concentration to induce most sprouts.
Endothelial cells isolated from diabetics produce more sprouts in the presence of a combination of both gamma-secretase inhibitors with VEGF. (FIG. 2, *P<0.05) than with either of them alone, which implies the need of a combination of both growth factor and DAPT.

[3] = DAPT delivered via intraperitoneal injection

Row | region of effects ([1]; DAPT delivered from the gel system) | glycosaminoglycans, alcian blue staining [1, 3] | intestinal structure, H&E staining [1, 3] | Compound | cell differentiation at distant sites (small intestines) ([1]; DAPT delivered from alginate gel system, compared with intraperitoneal injection, FIG. 6) | Notch target gene expression, HES-1 staining [1, 3] | proliferating cells, Ki67 staining [1, 3] | effects at distant organs (e.g., small intestines) ([1]; DAPT delivered via intraperitoneal injection, goes into the systemic circulation) | concentration of VEGF that gives the most sprouts if used alone ([2]; VEGF alone, FIG. 3) [ng/mL] | response to VEGF, capability of forming sprouts ([2]; endothelial cells from diabetics compared to age-matched non-diabetics, FIG. 1, P<0.05)
1 | only has effects in the local region | presence of extra glycosaminoglycans | disrupts normal intestinal structure | C[C@H](NC(=O)Cc1cc(F)cc(F)c1)C(=O)N[C@H](C(=O)OC(C)(C)C)c1ccccc1 [DAPT, N—[N-(3,5-Difluorophenacetyl-L-alanyl)]-S-phenylglycine t-butyl ester] | does not alter cell differentiation at distant sites as much | downregulation of Notch target gene expression | loss of proliferating cells | led to adverse effects at distant organs | – | –
2 | – | – | – | VEGF | – | – | – | – | 50 | reduced response
